Experimental data reported in PubChem BioAssay (NCI).
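These data come from cells grown in 96-well plates and exposed to compound for 48 hours at five concentrations. TGI is the concentration that stops growth completely.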

Key:
Experiment in all cases: DTP human tumour cell line panel, 48 h
786-0 renal = test system: 786-0 renal
A498 renal = test system: A498 renal
A549 NSCLC = test system: A549 NSCLC
ACHN renal = test system: ACHN renal
BT-549 breast = test system: BT-549 breast
CAKI-1 renal = test system: CAKI-1 renal
CCRF-CEM leukemia = test system: CCRF-CEM leukemia
COLO 205 colon = test system: COLO 205 colon
DLD-1 colon = test system: DLD-1 colon
DMS 114 small cell lung = test system: DMS 114 small cell lung
DMS 273 small cell lung = test system: DMS 273 small cell lung
DU-145 prostate = test system: DU-145 prostate
EKVX NSCLC = test system: EKVX NSCLC
HCC-2998 colon = test system: HCC-2998 colon
HCT-116 colon = test system: HCT-116 colon
HCT-15 colon = test system: HCT-15 colon
HL-60(TB) leukemia = test system: HL-60(TB) leukemia
HOP-18 NSCLC = test system: HOP-18 NSCLC
HOP-62 NSCLC = test system: HOP-62 NSCLC
HOP-92 NSCLC = test system: HOP-92 NSCLC
HS 578T breast = test system: HS 578T breast
HT29 colon = test system: HT29 colon
IGROV1 ovarian = test system: IGROV1 ovarian
K-562 leukemia = test system: K-562 leukemia
KM12 colon = test system: KM12 colon
KM20L2 colon = test system: KM20L2 colon
LOX IMVI melanoma = test system: LOX IMVI melanoma
LXFL 529 NSCLC = test system: LXFL 529 NSCLC
M14 melanoma = test system: M14 melanoma
M19-MEL melanoma = test system: M19-MEL melanoma
MALME-3M melanoma = test system: MALME-3M melanoma
MDA-MB-231 breast = test system: MDA-MB-231 breast
MDA-MB-435 = test system: MDA-MB-435
MDA-N = test system: MDA-N
MOLT-4 leukemia = test system: MOLT-4 leukemia
NCI-H226 lung = test system: NCI-H226 lung
NCI-H23 lung = test system: NCI-H23 lung
NCI-H460 lung = test system: NCI-H460 lung
NCI-H522 lung = test system: NCI-H522 lung
OVCAR-3 ovarian = test system: OVCAR-3 ovarian
OVCAR-4 ovarian = test system: OVCAR-4 ovarian
OVCAR-5 ovarian = test system: OVCAR-5 ovarian
OVCAR-8 ovarian = test system: OVCAR-8 ovarian
PC-3 prostate = test system: PC-3 prostate
RPMI-8226 leukemia = test system: RPMI-8226 leukemia
RXF 393 renal = test system: RXF 393 renal
SF-268 CNS = test system: SF-268 CNS
SF-295 CNS = test system: SF-295 CNS
SF-539 CNS = test system: SF-539 CNS
SK-MEL-2 melanoma = test system: SK-MEL-2 melanoma
SK-MEL-28 melanoma = test system: SK-MEL-28 melanoma
SK-MEL-5 melanoma = test system: SK-MEL-5 melanoma
SK-OV-3 ovarian = test system: SK-OV-3 ovarian
SN12C renal = test system: SN12C renal
SNB-19 CNS = test system: SNB-19 CNS
SNB-75 CNS = test system: SNB-75 CNS
SR leukemia = test system: SR leukemia
SW-620 colon = test system: SW-620 colon
T-47D breast = test system: T-47D breast
TK-10 renal = test system: TK-10 renal
U251 CNS = test system: U251 CNS
UACC-257 melanoma = test system: UACC-257 melanoma
UACC-62 melanoma = test system: UACC-62 melanoma
UO-31 renal = test system: UO-31 renal
XF 498 CNS = test system: XF 498 CNS
RXF-631 renal = test system: RXF-631 renal
SNB-78 CNS = test system: SNB-78 CNS

CCOC(=O)C(CC(C)C)NC(=O)C(N)Cc1ccc(N(CCCl)CCCl)cc1 (stereo unspecified)
TGI (786-0 renal): 6.81 µM
TGI (A498 renal): 30.9 µM
TGI (A549 NSCLC): 45.1 µM
TGI (ACHN renal): 1.81 µM
TGI (BT-549 breast): 46 µM
TGI (CAKI-1 renal): 15.3 µM
TGI (CCRF-CEM leukemia): 13 µM
TGI (COLO 205 colon): 12.1 µM
TGI (DLD-1 colon): 8.27 µM
TGI (DMS 114 small cell lung): 7.54 µM
TGI (DMS 273 small cell lung): 13.2 µM
TGI (DU-145 prostate): 47.1 µM
TGI (EKVX NSCLC): 37.5 µM
TGI (HCC-2998 colon): 20 µM
TGI (HCT-116 colon): 17.9 µM
TGI (HCT-15 colon): 11.5 µM
TGI (HL-60(TB) leukemia): 2.51 µM
TGI (HOP-18 NSCLC): 16.1 µM
TGI (HOP-62 NSCLC): 22 µM
TGI (HOP-92 NSCLC): 11.2 µM
TGI (HS 578T breast): 44.5 µM
TGI (HT29 colon): 11.6 µM
TGI (IGROV1 ovarian): 31.6 µM
TGI (K-562 leukemia): 41.6 µM
TGI (KM12 colon): 20.1 µM
TGI (KM20L2 colon): 13.5 µM
TGI (LOX IMVI melanoma): 0.278 µM
TGI (LXFL 529 NSCLC): 8.29 µM
TGI (M14 melanoma): 11.7 µM
TGI (M19-MEL melanoma): 4.57 µM
TGI (MALME-3M melanoma): 3.84 µM
TGI (MDA-MB-231 breast): 32.3 µM
TGI (MDA-MB-435): 46.2 µM
TGI (MDA-N): 26.1 µM
TGI (MOLT-4 leukemia): 1.68 µM
TGI (NCI-H226 lung): 29.5 µM
TGI (NCI-H23 lung): 7.09 µM
TGI (NCI-H460 lung): 0.426 µM
TGI (NCI-H522 lung): 8.53 µM
TGI (OVCAR-3 ovarian): 4.72 µM
TGI (OVCAR-4 ovarian): 3.1 µM
TGI (OVCAR-5 ovarian): 33.7 µM
TGI (OVCAR-8 ovarian): 24.9 µM
TGI (PC-3 prostate): 32.2 µM
TGI (RPMI-8226 leukemia): > 64.7 µM
TGI (RXF 393 renal): 5.12 µM
TGI (SF-268 CNS): 16.8 µM
TGI (SF-295 CNS): 21.9 µM
TGI (SF-539 CNS): 9.59 µM
TGI (SK-MEL-2 melanoma): 11.8 µM
TGI (SK-MEL-28 melanoma): 13.7 µM
TGI (SK-MEL-5 melanoma): 19.8 µM
TGI (SK-OV-3 ovarian): 16.6 µM
TGI (SN12C renal): 19.7 µM
TGI (SNB-19 CNS): 35.5 µM
TGI (SNB-75 CNS): 15.9 µM
TGI (SR leukemia): 4.69 µM
TGI (SW-620 colon): 35.7 µM
TGI (T-47D breast): 15.1 µM
TGI (TK-10 renal): 25.3 µM
TGI (U251 CNS): 22.4 µM
TGI (UACC-257 melanoma): 26.9 µM
TGI (UACC-62 melanoma): 9.56 µM
TGI (UO-31 renal): 5.97 µM
TGI (XF 498 CNS): 3.87 µM

CN(CC(=O)O)S(=O)(=O)c1ccc(Cl)cc1
TGI (786-0 renal): > 100 µM
TGI (A498 renal): > 100 µM
TGI (A549 NSCLC): > 100 µM
TGI (ACHN renal): > 100 µM
TGI (CAKI-1 renal): > 100 µM
TGI (CCRF-CEM leukemia): > 100 µM
TGI (COLO 205 colon): > 100 µM
TGI (DLD-1 colon): > 100 µM
TGI (DMS 273 small cell lung): > 100 µM
TGI (EKVX NSCLC): > 100 µM
TGI (HCC-2998 colon): > 100 µM
TGI (HCT-15 colon): > 100 µM
TGI (HL-60(TB) leukemia): > 100 µM
TGI (HOP-18 NSCLC): > 100 µM
TGI (HOP-92 NSCLC): > 100 µM
TGI (HT29 colon): > 100 µM
TGI (IGROV1 ovarian): > 100 µM
TGI (K-562 leukemia): > 100 µM
TGI (KM12 colon): > 100 µM
TGI (KM20L2 colon): > 100 µM
TGI (LOX IMVI melanoma): > 100 µM
TGI (LXFL 529 NSCLC): > 100 µM
TGI (M14 melanoma): > 100 µM
TGI (M19-MEL melanoma): > 100 µM
TGI (MALME-3M melanoma): > 100 µM
TGI (MOLT-4 leukemia): > 100 µM
TGI (NCI-H226 lung): > 100 µM
TGI (NCI-H23 lung): > 100 µM
TGI (NCI-H460 lung): > 100 µM
TGI (NCI-H522 lung): > 100 µM
TGI (OVCAR-3 ovarian): > 100 µM
TGI (OVCAR-4 ovarian): > 100 µM
TGI (OVCAR-5 ovarian): > 100 µM
TGI (OVCAR-8 ovarian): > 100 µM
TGI (RPMI-8226 leukemia): > 100 µM
TGI (RXF 393 renal): > 100 µM
TGI (SF-268 CNS): > 100 µM
TGI (SF-295 CNS): > 100 µM
TGI (SF-539 CNS): > 100 µM
TGI (SK-MEL-2 melanoma): > 100 µM
TGI (SK-MEL-28 melanoma): > 100 µM
TGI (SK-MEL-5 melanoma): > 100 µM
TGI (SK-OV-3 ovarian): > 100 µM
TGI (SN12C renal): > 100 µM
TGI (SNB-19 CNS): > 100 µM
TGI (SNB-75 CNS): > 100 µM
TGI (SW-620 colon): > 100 µM
TGI (TK-10 renal): > 100 µM
TGI (U251 CNS): > 100 µM
TGI (UACC-257 melanoma): > 100 µM
TGI (UACC-62 melanoma): > 100 µM
TGI (UO-31 renal): > 100 µM
TGI (XF 498 CNS): > 100 µM

S=C1NC(c2ccccc2)=NC(Cc2ccccc2)(c2ccccc2)N1c1ccccc1 (stereo unspecified)
TGI (786-0 renal): > 100 µM
TGI (A498 renal): > 100 µM
TGI (A549 NSCLC): > 100 µM
TGI (ACHN renal): > 100 µM
TGI (CAKI-1 renal): > 100 µM
TGI (CCRF-CEM leukemia): > 100 µM
TGI (COLO 205 colon): > 100 µM
TGI (DLD-1 colon): > 100 µM
TGI (DMS 114 small cell lung): > 100 µM
TGI (EKVX NSCLC): > 100 µM
TGI (HCC-2998 colon): > 100 µM
TGI (HCT-116 colon): > 100 µM
TGI (HCT-15 colon): > 100 µM
TGI (HL-60(TB) leukemia): > 100 µM
TGI (HOP-18 NSCLC): > 100 µM
TGI (HOP-62 NSCLC): > 100 µM
TGI (HOP-92 NSCLC): > 100 µM
TGI (HT29 colon): > 100 µM
TGI (IGROV1 ovarian): > 100 µM
TGI (K-562 leukemia): > 100 µM
TGI (KM12 colon): > 100 µM
TGI (KM20L2 colon): > 100 µM
TGI (LOX IMVI melanoma): > 100 µM
TGI (LXFL 529 NSCLC): > 100 µM
TGI (M14 melanoma): > 100 µM
TGI (M19-MEL melanoma): > 100 µM
TGI (MALME-3M melanoma): > 100 µM
TGI (MOLT-4 leukemia): > 100 µM
TGI (NCI-H226 lung): > 100 µM
TGI (NCI-H23 lung): > 100 µM
TGI (NCI-H460 lung): > 100 µM
TGI (OVCAR-3 ovarian): > 100 µM
TGI (OVCAR-4 ovarian): > 100 µM
TGI (OVCAR-5 ovarian): > 100 µM
TGI (OVCAR-8 ovarian): > 100 µM
TGI (RPMI-8226 leukemia): > 100 µM
TGI (RXF 393 renal): > 100 µM
TGI (RXF-631 renal): > 100 µM
TGI (SF-268 CNS): > 100 µM
TGI (SF-295 CNS): > 100 µM
TGI (SF-539 CNS): > 100 µM
TGI (SK-MEL-28 melanoma): > 100 µM
TGI (SK-MEL-5 melanoma): > 100 µM
TGI (SN12C renal): > 100 µM
TGI (SNB-19 CNS): > 100 µM
TGI (SNB-75 CNS): 57.1 µM
TGI (SNB-78 CNS): > 100 µM
TGI (SR leukemia): > 100 µM
TGI (SW-620 colon): > 100 µM
TGI (TK-10 renal): > 100 µM
TGI (UACC-257 melanoma): > 100 µM
TGI (UACC-62 melanoma): > 100 µM
TGI (UO-31 renal): > 100 µM
